# According to US10047087B2, “Substituted pyrazolo[1,5-A] pyridine as tropomyosin receptor kinase (TrK) inhibitors” (Dr. Reddy's Laboratories Ltd., priority 2011, dated 2018):
# Target: T1, TrkA kinase (Homo sapiens, UniProt P04629)
# T1 construct: purchased Upstate, USA
# Experiment: In vitro TrkA inhibitory activity using TR-FRET assay
# Assay type: biochemical
# Conditions: 5 ng TrkA, 500 μM ATP, both bounds given in nm, read-out: TrkA inhibitory activity in-vitro IC50
# Description: Determination of In Vitro TrkA Inhibitory Activity Using TR-FRET Assay
# Compounds were screened in the TR-FRET assay with TrkA kinase. 5 ng of TrkA [Upstate, USA] kinase was used for assay. The compound was incubated with the kinase for 30 minutes at 20-35° C. After the incubation, substrate mix [40 nM Ultra light poly GT (Perkin Elmer, USA) and 500 μM ATP] was added. The above reaction was stopped by the addition of 40 mM EDTA after 30 minutes. The Eu-labelled antiphospho-tyrosine antibody [Perkin Elmer, USA] was added at 0.5 nM and the fluorescence emission at 615 nm/665 nm [excitation at 340 nm] was measured. The compounds were initially screened at 100 nM, 1 μM and 10 μM concentrations. The potent compounds with >25% inhibition at 1 μM of TrkA were taken for the full dose response studies. The final DMSO concentration in the assay was […]. For IC50 determination, ⅓^rd serial dilution was made from the 20 mM DMSO stock solution. 2 μl of these were transferred to the test wells containing 20 μl reaction mixture [Total reaction volume 22 μl]. The fluorescence was measured in Perkin Elmer Wallac 1420 Multilabel Counter Victor 3. The IC50 was determined by fitting the dose response data to a sigmoidal curve fitting equation using GraphPad Prism software version 5.
# T1 sequence (P04629 33-796): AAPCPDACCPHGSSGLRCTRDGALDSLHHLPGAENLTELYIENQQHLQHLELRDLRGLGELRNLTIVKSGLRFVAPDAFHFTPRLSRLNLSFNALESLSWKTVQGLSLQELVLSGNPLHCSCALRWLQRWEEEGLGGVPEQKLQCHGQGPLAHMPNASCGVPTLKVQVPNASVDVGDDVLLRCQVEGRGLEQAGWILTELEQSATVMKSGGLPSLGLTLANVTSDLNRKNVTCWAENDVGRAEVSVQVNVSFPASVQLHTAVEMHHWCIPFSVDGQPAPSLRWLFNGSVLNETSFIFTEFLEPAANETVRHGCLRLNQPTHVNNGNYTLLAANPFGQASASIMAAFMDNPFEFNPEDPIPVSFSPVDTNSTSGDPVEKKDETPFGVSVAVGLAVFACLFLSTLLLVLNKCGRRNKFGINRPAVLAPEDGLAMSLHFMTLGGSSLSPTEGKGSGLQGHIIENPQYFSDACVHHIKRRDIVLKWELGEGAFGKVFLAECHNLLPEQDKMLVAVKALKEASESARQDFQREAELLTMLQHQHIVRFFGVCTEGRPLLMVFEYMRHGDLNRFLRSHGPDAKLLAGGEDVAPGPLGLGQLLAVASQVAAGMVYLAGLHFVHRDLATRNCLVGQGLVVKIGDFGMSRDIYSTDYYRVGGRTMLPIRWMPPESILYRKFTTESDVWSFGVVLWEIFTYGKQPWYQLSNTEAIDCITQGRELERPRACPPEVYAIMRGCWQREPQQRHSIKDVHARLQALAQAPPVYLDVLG
row,Structure (SMILES),IC50 [µM]
1,"CC(C)(C)S(=O)(=O)NC(=O)c1cnn2ccc(N3CCC[C@@H]3c3cc(F)ccc3OCC(F)(F)F)cc12 [Example 49, (R)-N-(tert-butylsulfonyl)-5-(2-(5-fluoro-2-(2,2,2-trifluoroethoxy)phenyl)pyrrolidin-1-yl)pyrazolo[1,5-a]pyridine-3-carboxamide]",0.1 to 0.5
2,"CC(C)(C)S(=O)(=O)NC(=O)c1cnn2ccc(N3CCC[C@@H]3c3cc(F)ccc3-c3ccc(F)cc3)cc12 [Example 54, (R)-N-(tert-butylsulfonyl)-5-(2-(4,4′-difluoro-[1,1′-biphenyl]-2-yl)pyrrolidin-l-yl)pyrazolo[1,5-a]pyridine-3-carboxamide]",0.1 to 0.5
3,"CC(C)(C)S(=O)(=O)NC(=O)c1cnn2ccc(N3CCC[C@@H]3c3cc(F)ccc3F)c(F)c12 [Example 61, (R)-N-(tert-butylsulfonyl)-5-(2-(2,5-difluorophenyl)pyrrolidin-1-yl)-4-fluoro pyrazolo[1,5-a] pyridine-3-carboxamide]",0.1 to 0.5
4,"CC(C)(C)S(=O)(=O)NC(=O)c1cnn2ccc(N3CCC[C@@H]3c3cc(F)cc(F)c3)cc12 [Example 66, (R)-N-(tert-butylsulfonyl)-5-(2-(3,5-difluorophenyl)pyrrolidin-1-yl)pyrazolo[1,5-a]pyridine-3-carboxamide]",0.1 to 0.5
5,"CC(C)S(=O)(=O)NC(=O)c1cnn2ccc(N3CCC[C@@H]3c3cc(F)cc(F)c3)cc12 [Example 71, (R)-5-(2-(3,5-difluorophenyl)pyrrolidin-1-yl)-N-(isopropylsulfonyl)pyrazolo[1,5-a] pyridine-3-carboxamide]",0.1 to 0.5
6,"O=C(NS(=O)(=O)c1ccc(-n2cncn2)nc1)c1cnn2ccc(N3CCC[C@@H]3c3cc(F)cc(F)c3)cc12 [Example 72, (R)-N-((6-(1H-1,2,4-triazol-1-yl)pyridin-3-yl)sulfonyl)-5-(2-(3,5-difluorophenyl)pyrrolidin-1-yl)pyrazolo[1,5-a]pyridine-3-carboxamide]",0.1 to 0.5

# Other lines, results leading:
row,IC50 [µM],Structure (SMILES)
1,0.1 to 0.5,"CCC1(S(=O)(=O)NC(=O)c2cnn3ccc(N4CCC[C@@H]4c4cc(F)ccc4F)cc23)CC1 [Example 36, (R)-5-(2-(2,5-difluorophenyl)pyrrolidin-1-yl)-N-((1-ethylcyclopropyl)sulfonyl) pyrazolo[1,5-a]pyridine-3-carboxamide]"
2,0.1 to 0.5,"CC(C)(C)CS(=O)(=O)NC(=O)c1cnn2ccc(N3CCC[C@@H]3c3cc(F)ccc3F)cc12 [Example 37, (R)-5-(2-(2,5-difluorophenyl)pyrrolidin-1-yl)-N-(neopentylsulfonyl) pyrazolo[1,5-a]pyridine-3-carboxamide]"
3,0.1 to 0.5,"CN1CCN(S(=O)(=O)NC(=O)c2cnn3ccc(N4CCC[C@@H]4c4cc(F)ccc4F)cc23)CC1 [Example 86, (R)-5-(2-(2,5-difluorophenyl)pyrrolidin-1-yl)-N-((4-methylpiperazin-1-yl)sulfonyl)pyrazolo[1,5-a]pyridine-3-carboxamide]"

# Same assay, conditions: 5 ng TrkA, 500 μM ATP, lower bound in nm [sic], upper bound in μM, read-out: TrkA inhibitory activity in-vitro IC50
row,IC50 [µM],Structure (SMILES)
1,0.5 to 1,"CC(C)(C)S(=O)(=O)NC(=O)c1cnn2ccc(N3C[C@H](O)C[C@@H]3c3cc(F)ccc3F)cc12 [Example 48, N-(tert-butylsulfonyl)-5-((2R,4R)-2-(2,5-difluorophenyl)-4-hydroxypyrrolidin-1-yl)pyrazolol[1,5-a]pyridine-3-carboxamide]"
2,0.5 to 1,"CC(C)(C)S(=O)(=O)NC(=O)c1cnn2ccc(N3C[C@H](F)C[C@@H]3c3cc(F)ccc3F)cc12 [Example 58, N-(tert-butylsulfonyl)-5-((2R,4R)-2-(2,5-difluorophenyl)-4-fluoropyrrolidin-1-yl) pyrazolo[1,5-a]pyridine-3-carboxamide]"
3,0.5 to 1,"COCCOc1cc(F)cc([C@H]2CCCN2c2ccn3ncc(C(=O)NS(=O)(=O)C(C)(C)C)c3c2)c1 [Example 67, (R)-N-(tert-butylsulfonyl)-5-(2-(3-fluoro-5-(2-methoxyethoxy)phenyl)pyrrolidin-1-yl) pyrazolo[1,5-a]pyridine-3-carboxamide]"
4,0.5 to 1,"CC(C)(C)S(=O)(=O)NC(=O)c1cnn2ccc(N3CCC[C@@H]3c3cc(F)cc(OC4CCOC4)c3)cc12 (stereo partly drawn) [Example 68, N-(tert-butylsulfonyl)-5-((2R)-2-(3-fluoro-5-((tetrahydrofuran-3-yl)oxy)phenyl)pyrrolidin-1-yl)pyrazolo[1,5-a]pyridine-3-carboxamide]"
5,0.5 to 1,"O=C(NS(=O)(=O)c1ccc(F)cc1)c1cnn2ccc(N3CCC[C@@H]3c3cc(F)cc(F)c3)cc12 [Example 69, (R)-5-(2-(3,5-difluorophenyl)pyrrolidin-1-yl)-N-((4-fluorophenyl)sulfonyl)pyrazolo[1,5-a]pyridine-3-carboxamide]"

# Same assay, conditions: 5 ng TrkA, 500 μM ATP, read-out: TrkA inhibition in-vitro IC50
row,Structure (SMILES),IC50 [µM]
1,"O=C(NS(=O)(=O)c1ccc2c(c1)OCCO2)c1cnn2ccc(N3CCC[C@@H]3c3cc(F)ccc3F)cc12 [Example 34, (R)-5-(2-(2,5-difluorophenyl)pyrrolidin-1-yl)-N-((2,3-dihydrobenzo[b][1,4]dioxin-6-yl)sulfonyl)pyrazolo [1,5-a]pyridine-3-carboxamide]",0.05 to 0.1
2,"CC(C)(C)S(=O)(=O)NC(=O)c1cnn2ccc(N3CCC[C@@H]3c3cncc(F)c3)cc12 [Example 44, (R)-N-(tert-butylsulfonyl)-5-(2-(5-fluoropyridin-3-yl)pyrrolidin-1-yl)pyrazolo[1,5-a] pyridine-3-carboxamide]",0.05 to 0.1
3,"CC(C)(C)S(=O)(=O)NC(=O)c1cnn2ccc(N3CCC[C@@H]3c3cc(F)ccc3OC3CCOC3)cc12 (stereo partly drawn) [Example 60, N-(tert-butylsulfonyl)-5-((2R)-2-(5-fluoro-2-((tetrahydrofuran-3-yl)oxy)phenyl)pyrrolidin-1-yl)pyrazolo[1,5-a]pyridine-3-carboxamide]",0.05 to 0.1
4,"CC(C)(C)S(=O)(=O)NC(=O)c1cnn2ccc(N3CCC[C@@H]3c3cc(F)ccc3OC(F)F)cc12 [Example 63, (R)-N-(tert-butylsulfonyl)-5-(2-(2-(difluoromethoxy)-5-fluorophenyl)pyrrolidin-1-yl) pyrazolo[1,5-a]pyridine-3-carboxamide]",0.05 to 0.1
5,"O=C(NS(=O)(=O)c1ccc(N2CC[C@H](O)C2)cc1)c1cnn2ccc(N3CCC[C@@H]3c3cc(F)cc(F)c3)cc12 [Example 70, 5-((R)-2-(3,5-difluorophenyl)pyrrolidin-1-yl)-N-((4-((S)-3-hydroxypyrrolidin-1-yl)phenyl)sulfonyl)pyrazolo[1,5-a] pyridine-3-carboxamide]",≤ 0.05
6,"O=C(NS(=O)(=O)c1ccc(N2CC[C@H](O)C2)nc1)c1cnn2ccc(N3CCC[C@@H]3c3cc(F)cc(F)c3)cc12 [Example 73, 5-((R)-2-(3,5-difluorophenyl)pyrrolidin-1-yl)-N-((6-((S)-3-hydroxypyrrolidin-1-yl)pyridin-3-yl)sulfonyl)pyrazolo[1,5-a] pyridine-3-carboxamide]",≤ 0.05
7,"CCN(CC)S(=O)(=O)NC(=O)c1cnn2ccc(N3CCC[C@@H]3c3cc(F)ccc3OC)cc12 [Example 87, (R)-N-(N,N-diethylsulfamoyl)-5-(2-(5-fluoro-2-methoxyphenyl)pyrrolidin-1-yl) pyrazolo[1,5-a]pyridine-3-carboxamide]",≤ 0.05

# More lines, now with the values ahead:
row,IC50 [µM],Structure (SMILES)
1,≤ 0.05,"O=C(NS(=O)(=O)C1(Cc2ccc(F)cc2)CC1)c1cnn2ccc(N3CCC[C@@H]3c3cc(F)ccc3F)cc12 [Example 41, (R)-5-(2-(2,5-difluorophenyl)pyrrolidin-1-yl)-N-((1-(4-fluorobenzyl)cyclopropyl)sulfonyl) pyrazolo[1,5-a]pyridine-3-carboxamide]"
2,0.05 to 0.1,"CC(C)(C)S(=O)(=O)NC(=O)c1cnn2ccc(N3CCC[C@@H]3c3cc(F)ccc3Cl)cc12 [Example 47, (R)-N-(tert-butylsulfonyl)-5-(2-(2-chloro-5-fluorophenyl)pyrrolidin-1-yl)pyrazolo[1,5-a]pyridine-3-carboxamide]"
3,≤ 0.05,"CN(CC1CC1)S(=O)(=O)NC(=O)c1cnn2ccc(N3CCC[C@@H]3c3cc(F)ccc3F)cc12 [Example 80, (R)-N-(N-(cyclopropylmethyl)-N-methylsulfamoyl)-5-(2-(2,5-difluorophenyl)pyrrolidin-1-yl)pyrazolo[1,5-a]pyridine-3-carboxamide]"
4,≤ 0.05,"CCN(CC)S(=O)(=O)NC(=O)c1cnn2ccc(N3CCC[C@@H]3c3cc(F)ccc3F)cc12 [Example 81, (R)-N-(N,N-diethylsulfamoyl)-5-(2-(2,5-difluorophenyl)pyrrolidin-1-yl)pyrazolo[1,5-a]pyridine-3-carboxamide]"
5,≤ 0.05,"O=C(NS(=O)(=O)N1CCOCC1)c1cnn2ccc(N3CCC[C@@H]3c3cc(F)ccc3F)cc12 [Example 84, (R)-5-(2-(2,5-difluorophenyl)pyrrolidin-1-yl)-N-(morpholinosulfonyl) pyrazolo[1,5-a]pyridine-3-carboxamide]"
6,≤ 0.05,"O=C(NS(=O)(=O)N1CCCC1)c1cnn2ccc(N3CCC[C@@H]3c3cc(F)ccc3F)cc12 [Example 85, (R)-5-(2-(2,5-difluorophenyl)pyrrolidin-1-yl)-N-(pyrrolidin-1-ylsulfonyl)pyrazolo[1,5-a]pyridine-3-carboxamide]"
